From patent US20150031674A1, “SERINE/THREONINE KINASE INHIBITORS” (GENENTECH, INC., priority 2013, published 2015) come the findings set out here.

human recombinant PAK1-KD protein, sequence (Q13153 270-521 limits assumed): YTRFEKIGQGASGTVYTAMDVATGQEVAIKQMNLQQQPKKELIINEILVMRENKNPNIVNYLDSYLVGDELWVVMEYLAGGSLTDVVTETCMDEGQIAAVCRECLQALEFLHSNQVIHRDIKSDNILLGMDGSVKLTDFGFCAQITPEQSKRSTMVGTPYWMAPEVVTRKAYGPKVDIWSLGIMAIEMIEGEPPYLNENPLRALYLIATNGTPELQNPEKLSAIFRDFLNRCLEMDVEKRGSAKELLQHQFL

This experiment addresses human recombinant PAK1-KD protein (Homo sapiens, UniProt Q13153). The experiment is described as follows: PAK1-KD (Kinase Domain) IC50 Zlyte Assay (FRET peptide substrate phosphorylation). The conditions noted are these: Z'-LYTE, Biological Example 1.
For `CCNc1ncc2cc(-c3ccc(-c4cccc(C)n4)cc3Cl)c(=O)n(CCOC3CNC3)c2n1` [Example I-30, 8-[2-(azetidin-3-yloxy)ethyl]-6-[2-chloro-4-(6-methyl-2-pyridyl)phenyl]-2-(ethylamino)pyrido[2,3-d]pyrimidin-7-one], the Ki (commonly the dissociation constant of the complex between target and ligand, obtained from inhibition or displacement) is 9.9 nM.
In the case of `Cc1cccc(-c2ccc(-c3cc4cnc(NC(C)C)nc4n(C[C@H]4CC[C@H](N)CC4)c3=O)c(Cl)c2)n1` [Example I-32, 8-[(4-aminocyclohexyl)methyl]-6-[2-chloro-4-(6-methyl-2-pyridyl)phenyl]-2-(isopropylamino)pyrido[2,3-d]pyrimidin-7-one] it was 0.5 nM.
In the case of `Cc1cccc(-c2ccc(-c3cc4cnc(NC5COC5)nc4n(C[C@H]4CC[C@H](N)CC4)c3=O)c(Cl)c2)n1` [Example I-33, 8-(((1r,4r)-4-aminocyclohexyl)methyl)-6-(2-chloro-4-(6-methylpyridin-2-yl)phenyl)-2-(oxetan-3-ylamino)pyrido[2,3-d]pyrimidin-7(8H)-one] it was 0.5 nM.
In the case of `CCNc1ncc2cc(-c3ccc(-c4cccc(C)n4)cc3Cl)c(=O)n(CC(=O)N3CCNCC3)c2n1` [Example I-34, 6-[2-Chloro-4-(6-methyl-2-pyridyl)phenyl]-2-(ethylamino)-8-(2-oxo-2-piperazin-1-yl-ethyl)pyrido[2,3-d]pyrimidin-7-one] it was 4 nM; in that of `Cc1cccc(-c2ccc(-c3cc4cnc(NC(C)C)nc4n(CC(=O)N4CCNCC4)c3=O)c(Cl)c2)n1` [Example I-35, 6-[2-Chloro-4-(6-methyl-2-pyridyl)phenyl]-2-(isopropylamino)-8-(2-oxo-2-piperazin-1-yl-ethyl)pyrido[2,3-d]pyrimidin-7-one], 4.2 nM.
Take `CCNc1ncc2cc(-c3ccc(-c4cncc(C)n4)cc3Cl)c(=O)n(CCCCO)c2n1` [Example I-36, 6-[2-Chloro-4-(6-methylpyrazin-2-yl)phenyl]-2-(ethylamino)-8-(4-hydroxybutyl)pyrido[2,3-d]pyrimidin-7-one]: the Ki is 71.8 nM.
In the case of `CNc1ncc2cc(-c3ccc(-c4cncc(C)n4)cc3Cl)c(=O)n(CCC3OCC(N)CO3)c2n1` (stereo not drawn) [Example I-37, 8-[2-(5-amino-1,3-dioxan-2-yl)ethyl]-6-[2-chloro-4-(6-methylpyrazin-2-yl)phenyl]-2-(methylamino)pyrido[2,3-d]pyrimidin-7-one] it was 7.5 nM; in that of `CCNc1ncc2cc(-c3ccc(-c4cncc(C)n4)cc3Cl)c(=O)n(CC3CCN(CCO)CC3)c2n1` [Example I-39, 6-(2-Chloro-4-(6-methylpyrazin-2-yl)phenyl)-2-(ethylamino)-8-((1-(2-hydroxyethyl)piperidin-4-yl)methyl)pyrido[2,3-d]pyrimidin-7(8H)-one], 40 nM; in that of `Cc1cncc(-c2ccc(-c3cc4cnc(NC5(C)COC5)nc4n(CCCC(N)=O)c3=O)c(Cl)c2)n1` [Example I-41, 4-[6-[2-Chloro-4-(6-methylpyrazin-2-yl)phenyl]-2-[(3-methyloxetan-3-yl)amino]-7-oxo-pyrido[2,3-d]pyrimidin-8-yl]butanamide], 31 nM.
In the case of `CNc1ncc2cc(-c3ccc(-c4cncc(C)n4)cc3Cl)c(=O)n(CCOC3CNC3)c2n1` [Example I-46, 8-[2-(azetidin-3-yloxy)ethyl]-6-[2-chloro-4-(6-methylpyrazin-2-yl)phenyl]-2-(methylamino)pyrido[2,3-d]pyrimidin-7-one] it was 13.9 nM; in that of `Cc1cncc(-c2ccc(-c3cc4cnc(NCC(F)F)nc4n(CCOC4CNC4)c3=O)c(Cl)c2)n1` [Example I-47, 8-[2-(azetidin-3-yloxy)ethyl]-6-[2-chloro-4-(6-methylpyrazin-2-yl)phenyl]-2-(2,2-difluoroethylamino)pyrido[2,3-d]pyrimidin-7-one], 25.2 nM; in that of `CCNc1ncc2cc(-c3ccc(-c4cncc(C)n4)cc3Cl)c(=O)n(CCCCC(N)=O)c2n1` [Example I-49, 5-[6-[2-Chloro-4-(6-methylpyrazin-2-yl)phenyl]-2-(ethylamino)-7-oxo-pyrido[2,3-d]pyrimidin-8-yl]pentanamide], 75.3 nM.
